Measurements reported in patent US20250034139A1, “AMINE COMPOUNDS HAVING ANTI-INFLAMMATORY, ANTIFUNGAL, ANTIPARASITIC, AND ANTICANCER ACTIVITY” (PHARMA CINQ, LLC, priority 2013, published 2025).
≈ marks a conversion by molar mass, not a printed value. Counter-ions that a name gives are not always drawn. Like-named read-outs stand apart in the source and are kept apart here.

How the values were obtained:
Type in all cases: cell-based
[1] = tested on: Candida albicans strain 3153; assay: Example H: Candida albicans growth inhibition (OD 600 nm); details: for MIC: Candida albicans, 3153, 24 hrs at 30° C., YPD, XLfit, read-out: MIC (uM) (99% of inhibition of fungal growth); for IC50: Candida albicans, 3153, read-out: IC50 (uM) (50% inhibition of fungal growth), 24 hrs at 30° C., YPD, XLfit
How it was run: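 Growth inhibition computed as % versus DMSO control from OD600 after ~24 h at 30° C. Inoculum: washed overnight YPD culture of strain 3153 at 3.5×10^4 CFU/ml in YPD; final compound concentrations 0, 5, 10, 16, 22, 30, 40 μM, duplicate wells.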

[2] = tested on: Cryptococcus neoformans (serotype D); assay: Example K: Cryptococcus neoformans (serotype D) growth inhibition; details: Cryptococcus deneoformans; for IC50: read-out: IC50 (concentration for 50% of inhibition); for MIC: read-out: MIC (concentration for maximum-99% of inhibition)
[3] = tested on: S. cerevisiae; assay: Example I: Saccharomyces cerevisiae growth inhibition (OD 600 nm); details: Saccharomyces cerevisiae, 18 hour incubation at 30° C., OD 600 nm, XLfit; for IC50: read-out: IC50, uM (50% inhibition of fungal growth); for MIC: read-out: MIC, uM (99% of inhibition of fungal growth)
[4] = OD of 48 hour reading, 37° C., tested 4 to 60 μM, XLfit

Row | Structure (SMILES) | MIC [1] | IC50 [1] | IC50 [2, 4] | MIC [2, 4] | IC50 [3] | MIC [3] | IC50 ([2]; 48 h)
1 | CCCCCCOc1cccc(CNc2ccnc3ccccc23)c1 [Compound AC, N-[3-(Hexyloxy)benzyl]quinolin-4-amine] | 108 µM (≈ 36 µg/mL) | 45.7 µM |  | 19.4 µM (≈ 6.49 µg/mL) | 27.7 µM | 47.7 µM (≈ 15.9 µg/mL) | 3.35 µM
2 | Cc1ccccc1OCCCCCCCCNc1ccnc2ccccc12 [BG, N-[8-(o-Tolyloxy)octyl]quinolin-4-amine] | 20.9 µM (≈ 7.56 µg/mL) | 11.5 µM | 2.13 µM | 12.5 µM (≈ 4.55 µg/mL) | 9.88 µM | 11.8 µM (≈ 4.29 µg/mL) | 
3 | Fc1ccc(OCCCCCCCCNc2ccnc3ccccc23)cc1 [BJ, N-[8-(4-Fluorophenoxy)octyl]quinolin-4-amine] | 23.5 µM (≈ 8.6 µg/mL) | 13.3 µM | 1.86 µM | 18.5 µM (≈ 6.79 µg/mL) | 21.4 µM | 37.8 µM (≈ 13.9 µg/mL) | 
4 | CCCCCCOCCCCCCCCNc1ccncn1 [AU, N-[8-(Hexyloxy)octyl]pyrimidin-4-amine] | 30.9 µM (≈ 9.52 µg/mL) | 16.3 µM | 1.63 µM | 14.4 µM (≈ 4.42 µg/mL) | 18 µM | 24.3 µM (≈ 7.46 µg/mL) | 
5 | CCCCOCCCCCCCCCCNc1ccnc2ccccc12 [AM, N-(10-Butoxydecyl)quinolin-4-amine] | 16.2 µM (≈ 5.77 µg/mL) | 6.52 µM | 3.32 µM | 13.3 µM (≈ 4.75 µg/mL) | 13.4 µM | 18.9 µM (≈ 6.73 µg/mL) | 
6 | c1ccc(Oc2cccc(CNc3ncnc4ccccc34)c2)cc1 [BM, N-(3-Phenoxybenzyl)quinazolin-4-amine] | 44.5 µM (≈ 14.6 µg/mL) | 20.2 µM | 0.72 µM | 22.6 µM (≈ 7.38 µg/mL) | 30.6 µM | 50.5 µM (≈ 16.5 µg/mL) | 
7 | CCCCCCOCCCCCCCCNc1ccnc2cc(Cl)ccc12 [AW, 7-Chloro-N-[8-(hexyloxy)octyl]quinolin-4-amine] | 24.8 µM (≈ 9.7 µg/mL) | 13.3 µM | 0.9 µM | 8.73 µM (≈ 3.41 µg/mL) | 9.73 µM | 10.2 µM (≈ 4 µg/mL) | 
8 | Cc1ccc(OCCCCCCCCNc2ccnc3ccccc23)cc1 [BF, N-[8-(p-Tolyloxy)octyl]quinolin-4-amine] | 26.9 µM (≈ 9.77 µg/mL) | 14.2 µM |  |  | 20.8 µM | 32 µM (≈ 11.6 µg/mL) | 
9 | CCCCCCOCCCCCCCCNc1cc(C)nc2ccccc12 [AV, N-[8-(Hexyloxy)octyl]-2-methylquinolin-4-amine] | 19.8 µM (≈ 7.34 µg/mL) | 13.4 µM | 5.12 µM | 22.9 µM (≈ 8.47 µg/mL) | 19.7 µM | 19.8 µM (≈ 7.32 µg/mL) | 
10 | Fc1cccc(OCCCCCCCCNc2ccnc3ccccc23)c1 [BI, N-[8-(3-Fluorophenoxy)octyl]quinolin-4-amine] | 27.8 µM (≈ 10.2 µg/mL) | 17.5 µM | 2.23 µM | 19.6 µM (≈ 7.17 µg/mL) | 28.6 µM | 47.1 µM (≈ 17.3 µg/mL) | 
11 | Cc1cccc(OCCCCCCCCNc2ccnc3ccccc23)c1 [BE, N-[8-(m-Tolyloxy)octyl]quinolin-4-amine] | 29.7 µM (≈ 10.8 µg/mL) | 12.2 µM | 3.45 µM | 13.2 µM (≈ 4.77 µg/mL) | 19.2 µM | 24.1 µM (≈ 8.75 µg/mL) | 
12 | CCCCCCOCCCCCCCCn1cnc2cnccc21 [AS, 1-[8-(Hexyloxy)octyl]-1H-imidazo[4,5-c]pyridine] | 37.8 µM (≈ 12.5 µg/mL) | 15.3 µM | 1.46 µM | 26.8 µM (≈ 8.89 µg/mL) | 38.5 µM | 48.9 µM (≈ 16.2 µg/mL) | 
13 | CCCCCCOCCCCCCCC[n+]1ccc(N)cc1 [BO, 4-Amino-1-[8-(hexyloxy)octyl]pyridinium salts] | 42.5 µM | 19 µM | 2 µM | 13.4 µM |  |  | 
14 | CCCCOCCCCCCCCCCn1cnc2cnccc21 [AT, 1-(10-Butoxydecyl)-1H-imidazo[4,5-c]pyridine] | 51.2 µM (≈ 17 µg/mL) | 14.5 µM | 1.29 µM | 41.8 µM (≈ 13.9 µg/mL) |  |  | 
15 | c1ccc(Oc2cccc(CNc3ccnc4ccccc34)c2)cc1 [AF, N-(3-Phenoxybenzyl)quinolin-4-amine] | 74.2 µM (≈ 24.2 µg/mL) | 45.5 µM | 5.18 µM | 55.9 µM (≈ 18.2 µg/mL) |  |  | 

Now from value to compound, other results behind:

Row | MIC [1] | IC50 [1] | IC50 [2, 4] | MIC [2, 4] | IC50 [3] | MIC [3] | Structure (SMILES) | IC50 ([2]; 48 h)
16 | 27.3 µM (≈ 9.13 µg/mL) | 11 µM | 3.34 µM | 40.5 µM (≈ 13.6 µg/mL) |  |  | CCCCCCOc1ccc(CNc2ccnc3ccccc23)cc1 [AA, N-[4-(Hexyloxy)benzyl]quinolin-4-amine] | 
17 | 26.6 µM (≈ 10.4 µg/mL) | 11.2 µM | 1.06 µM | 10.6 µM (≈ 4.13 µg/mL) | 19.6 µM | 19.9 µM (≈ 7.79 µg/mL) | CCCCCCOCCCCCCCCNc1ccnc2c(Cl)cccc12 [Compound AX, 8-Chloro-N-[8-(hexyloxy)octyl]quinolin-4-amine] | 
18 | 15.4 µM (≈ 4.4 µg/mL) | 5.24 µM | 0.76 µM | 9.54 µM (≈ 2.72 µg/mL) |  |  | CCCCCCCCCCNc1ncnc2ccccc12 [Compound AH, N-(Decyl)quinazolin-4-amine] | 
19 |  | 10.7 µM | 0.85 µM | 24.6 µM (≈ 8.26 µg/mL) | 23.5 µM |  | CCCCCCOc1cccc(CNc2ncnc3ccccc23)c1 [AK, N-[3-(Hexyloxy)benzyl]quinazolin-4-amine] | 
20 | 20.1 µM (≈ 7.72 µg/mL) | 7.08 µM | 1.88 µM | 11.5 µM (≈ 4.44 µg/mL) | 9.67 µM | 10.5 µM (≈ 4.03 µg/mL) | CCCCCCOCCCCCCCCCCNc1ccnc2ccccc12 [Compound AL, N-[10-(Hexyloxy)decyl]quinolin-4-amine] | 
21 |  | 7.82 µM | 0.53 µM | 6.99 µM (≈ 2.65 µg/mL) |  |  | COc1ccc(OCCCCCCCCNc2ncnc3ccccc23)cc1 [AE, N-[8-(4-Methoxyphenoxy)octyl]quinazolin-4-amine] | 
22 | 21.1 µM (≈ 7.99 µg/mL) | 10.4 µM | 2.01 µM | 15.8 µM (≈ 5.99 µg/mL) | 18.6 µM | 24.1 µM (≈ 9.11 µg/mL) | CCCCCCOc1cccc(OCCCNc2ccnc3ccccc23)c1 [AZ, N-{3-[3-(Hexyloxy)phenoxy]propyl}quinolin-4-amine] | 
23 | 19 µM (≈ 6.71 µg/mL) | 11.2 µM | 2.44 µM | 16.5 µM (≈ 5.82 µg/mL) | 21.4 µM | 29.4 µM (≈ 10.4 µg/mL) | CCCCCCOc1ccc(CNc2ccnc3ccccc23)cc1F [BK, N-[3-Fluoro-4-(hexyloxy)benzyl]quinolin-4-amine] | 
24 | 16 µM (≈ 4.55 µg/mL) | 8.92 µM | 1.78 µM | 17.6 µM (≈ 4.99 µg/mL) | 19.4 µM | 24.4 µM (≈ 6.93 µg/mL) | CCCCCCCCCCNc1ccnc2ccccc12 [Compound AG, N-(Decyl)quinolin-4-amine] | 
